Measured values reported in patent US5242926A, “Therapeutic composition for treating hyperthyroidism” (priority 1992, dated 1993).
“Also recorded” adds a separate entry of the source.

How the values were obtained:
[1] = system: rat thyroid, pituitary and suprarenal gland; experiment: Effect of THP on rat thyroid, pituitary and suprarenal gland weight (Experiment 6); assay type: in vivo, rats (Sprague-Dawley); details: PTU, 14 days
[2] = system: TSH, T3, T4, FT3 and FT4 in bloods; experiment: Effect of PBT and THP on serum TSH, T3, T4, FT3, FT4, normal rats (Experiment 3); assay type: in vivo, female Sprague-Dawley rats
Method: The female Sprague-Dawley rats, each weights 270±15 grams, are divided into 5 groups of 6 rats, for following daily treatment for continuous 10 days, except a normal group for control.
On the eleventh days, each rat is injected (I.P.) with pentobarbital 50 mg/kg and narcotized for extracting arterial blood which is settled for 2 hours at room temperature and centrifuged at 2500 rpm for 10 minutes to separate the serum. The concentrations of TSH, T3, T4, FT3 and FT4 in bloods are analyzed by RIA methods. The normal control group is treated with saline and analyzed by the same methods.

[3] = system: blood cholesterol and triglyceride in rats; experiment: Effects of THP on blood cholesterol, triglyceride and T4 in L-T4 induced hyperthyroidism rats (Experiment 5); assay type: in vivo, rats (Sprague-Dawley); details: 10 days
rat thyroid = experiment: Effect of each extracted layer of Corydalis on rat thyroid: body and thyroid weight, normal rats (Experiment 1); details: 50 mg/kg daily p.o., 14 days, vs control
Method: ICR mice may be used as testing animals in this invention, each having a weight of 18-25 grams. Sprague-Dawley rats each having a weight of 240±10 grams may also be used in this invention.
The mice or rats are placed in a metal cage by feeding 5 mice per group in each cage with solid foods and distilled water at least 1 week before performing the experiment at […] and humidity of 55±5%.
(§1) On the 15th day, each rat is intraperitoneally injected with pentobarbital 50 mg/kg and narcotized. The rat abdominal cavity is cut to take the thyroid out for weighing and for examining pathological section, which is stained with H-E stain to facilitate observation of pathologic changes.

thyroid follicle cells = experiment: Thyroid pathological section, H-E stain, normal rats (Experiment 1); assay type: in vivo, female Sprague-Dawley rats; details: 50 mg/kg daily p.o., 14 days
[4] = system: hyperthyroidism in rats (TSH, T3, T4, free T3 and free T4 in the serum); experiment: Serum TSH, T3, T4, FT3, FT4 by RIA, L-T4 induced hyperthyroidism rats (Experiment 2); assay type: in vivo, female Sprague-Dawley rats
Method: The female Sprague-Dawley rats each having a weight of 250±10 grams are subcutaneously injected (S.C.) for 12 days with a daily dose of 300 μg/kg for each rat to induce hyperthyroidism. […] Then, the rat abdominal cavity is cut to extract arterial blood which is settled for 2 hours at room temperature and is centrifuged at 2500 rpm for 10 minutes for separating the serum.
The concentrations of TSH, T3, T4, free T3 and free T4 in the serum by RIA methods.

[5] = system: hyperthyroidism in rats (TSH, T3, T4, FT3 and FT4 in the bloods); experiment: Effect of PBT and THP on serum TSH, T3, T4, FT3, FT4, L-T4 induced hyperthyroidism rats (Experiment 3); assay type: in vivo, female Sprague-Dawley rats
Method: (§2) The female Sprague-Dawley rats, each weighs 260±15 grams, are divided into 5 groups of 6 rats, each rat being subcutaneously injected (s.c.) with L-T4 300 μg/kg daily for continuous 12 days to induce hyperthyroidism in each rats. […] The control group is treted with saline. After continuous treatment of 10 days as described above, each rat is injected (I.P.) with pentobarbitol 50 mg/kg and narcotized on the eleventh day, and then extracted the arterial blood for measuring concentrations of TSH, T3, T4, FT3 and FT4 in the bloods.

[6] = system: thyroid function of normal rats; experiment: Effect of dl-tetrahydropalmatine (THP) on thyroid function of normal rats (Experiment 4)
Method: as §1
The method of experiment 1 is repeated by daily treating dl-tetrahydropalmatine (THP) 2.5 mg/kg, 5.0 mg/kg and 10 mg/kg (I.P.) respectively for continuous 14 days.

[7] = system: blood cholesterol and triglyceride in rats; experiment: Effects of THP on blood cholesterol, triglyceride and T4 in L-T4 induced hyperthyroidism rats (Experiment 5); assay type: in vivo, rats (Sprague-Dawley); details: 10 days; remark: listed apart in the source
Method: as §2

[8] = hyperthyroidism rats, PTU 5.0 mg/kg
[9] = L-T4 induced hyperthyroidism rats, PTU 5 mg/kg p.o., 10 days
[10] = THP 50 mg/kg [sic], i.p., 10 days
[11] = hyperthyroidism rats, THP 2.5 mg/kg i.p.
[12] = hyperthyroidism rats, THP 5 mg/kg i.p.
[13] = hyperthyroidism rats, THP 10.0 mg/kg i.p.
[14] = L-T4 induced hyperthyroidism rats, THP 5 mg/kg i.p., 10 days
[15] = hyperthyroidism rats, THP 5 mg/kg, I.P.

For `CCCc1cc(=O)[nH]c(=S)[nH]1` [PTU, propylthiouracil], the “effect on follicle cells and colloid (in words)” value [1] was “expansion of follicle cells and colloidal loss”, the “effect on thyroid weight (in words)” value [1] was “increase of thyroid weight” and the “effect on T3, T4, FT3 and FT4 (in words)” value ([2]; PTU 5 mg/kg P.O.) was “will remarkably reduce T3 (P<0.001), T4 (P<0.001), FT3 (P<0.001) and FT4 (P<0.001)”. The “TSH” value ([2]; PTU 5 mg/kg P.O., increase from 2.28±0.16 μu/ml, P<0.001) was 4.54±0.01 μm/ml, the FT3 ([2]; PTU 5 mg/kg p.o., 10 days) was 0.37 ± 0.10 ng/dL and the FT4 ([2]; PTU 5 mg/kg p.o., 10 days) was 0.35 ± 0.09 ng/dL. For the same compound, the T3 ([2]; PTU 5 mg/kg p.o., 10 days) was 31.77 ± 3.10 µg/dL, the T4 ([2]; PTU 5 mg/kg p.o., 10 days) was 0.92 ± 0.14 µg/dL and the TSH ([2]; PTU 5 mg/kg p.o., 10 days) was 4.54 ± 0.41 μu/ml. For the same compound, the Cholesterol [3, 8] was 73.9 ± 3.2 mg/dL, the T4 [3, 8] was 1.2 ± 0.2 µg/dL and the Triglyceride [3, 8] was 35.6 ± 3.2 mg/dL. The “changes in thyroid weight (in words)” value (rat thyroid) was “clearly shows an increase thyroid weight (P<0.001); also recorded: may increase thyroid weight”, the “pathologic section of the thyroid (in words)” value (thyroid follicle cells) was “remarkable expansion of the thyroid follicle cells and their colloidal loss; also recorded: will cause the formation of follicle cells, and loss of colloid” and the “effect on T3, T4, FT3 and FT4 (in words)” value ([4]; PTU 5 mg/kg) was “may remarkably reduce the concentrations of T3 (P <0.001), T4 (P<0.001), FT3 (P<0.01) and FT4 (P<0.001)”. The “effect on TSH (in words)” value ([4]; PTU 5 mg/kg) was “remarkably increase TSH (P<0.01)”, the FT3 ([4]; PTU 5 mg/kg p.o.) was 0.44 ± 0.02 ng/dL and the FT4 ([4]; PTU 5 mg/kg p.o.) was 0.47 ± 0.04 ng/dL. For the same compound, the T3 ([4]; PTU 5 mg/kg p.o.) was 17.92 ± 1.43 ng/dL, the T4 ([4]; PTU 5 mg/kg p.o.) was 1.11 ± 0.02 µg/dL and the TSH ([4]; PTU 5 mg/kg p.o.) was 3.98 ± 0.40 µg/mL. It also gave an FT3 [5, 9] of 2.01 ± 0.25 ng/dL, an FT4 [5, 9] of 3.24 ± 0.98 ng/dL and a T3 [5, 9] of 30.25 ± 3.25 ng/dL. The T4 [5, 9] was 1.95 ± 0.25 µg/dL, the TSH [5, 9] was 3.98 ± 0.51 μu/ml and the “effect on T3, T4, FT3 and FT4 (in words)” value ([5]; hyperthyroidism rats, PTU 5 mg/kg, P.O.) was “may decrease the T3 (P<0.001), T4 (P<0.001), FT3 (P<0.001) and FT4 (P<0.001)”. The “TSH” value ([5]; hyperthyroidism rats, PTU 5 mg/kg, P.O., increase from 0.99±0.11, P<0.001) was 3.98 ± 0.51 µg/mL, the “effect on T3, T4, FT3 and FT4 (in words)” value ([6]; PTU) was “reduces the T3, T4, FT3 and FT4” and the “effect on TSH (in words)” value ([6]; PTU) was “increases the TSH concentration”. The “effect on thyroid follicle cells and colloid (in words)” value ([6]; PTU) was “expand thyroid follicle cells and cause colloidal loss”, the FT3 ([6]; PTU 5.0 mg/kg) was 0.4 ± 0.1 ng/dL and the FT4 ([6]; PTU 5.0 mg/kg) was 0.4 ± 0.1 ng/dL. For the same compound, the T3 ([6]; PTU 5.0 mg/kg) was 31.8 ± 3.1 ng/dL, the T4 ([6]; PTU 5.0 mg/kg) was 0.9 ± 0.1 µg/dL and the TSH ([6]; PTU 5.0 mg/kg) was 4.5 ± 0.4 μu/ml.

`COc1cc2c(cc1OC)C1Cc3ccc(OC)c(OC)c3CN1CC2` (racemic) [THP, dl-tetrahydropalmatine] gave an FT3 [2, 10] of 1.18 ± 0.01 ng/dL, an FT4 [2, 10] of 1.97 ± 0.14 ng/dL and a T3 [2, 10] of 49.05 ± 2.45 µg/dL. The T4 [2, 10] was 2.32 ± 0.25 µg/dL, the TSH [2, 10] was 1.89 ± 0.13 μu/ml and the “effect on cholesterol compared with PTU (in words)” value ([3]; THP i.p.) was “increases the cholesterol by a much smaller amount than PTU”. It also gave a Cholesterol [3, 11] of 57.5 ± 3.5 mg/dL, a Triglyceride [3, 11] of 29.5 ± 3.5 mg/dL and a Cholesterol [3, 12] of 58.5 ± 3.4 mg/dL. For the same compound, the Triglyceride [3, 12] was 31.1 ± 5.4 mg/dL, the Cholesterol [3, 13] was 56.5 ± 4.6 mg/dL and the Triglyceride [3, 13] was 30.6 ± 5.1 mg/dL. The “effect on triglyceride compared with PTU (in words)” value ([3]; hyperthyroidism rats, THP i.p.) was “may reduce the triglyceride of the hyperthyroidism rats to be superior to PTU”, the T4 ([7]; THP 2.5 mg/kg i.p.) was 3.3 ± 0.4 µg/dL and the T4 ([7]; THP 5 mg/kg i.p.) was 3.1 ± 0.5 µg/dL. For the same compound, the T4 ([7]; THP 10.0 mg/kg i.p.) was 3.2 ± 0.5 µg/dL, the FT3 [5, 14] was 1.42 ± 0.62 ng/dL and the FT4 [5, 14] was 5.27 ± 1.05 ng/dL. For the same compound, the T3 [5, 14] was 42.36 ± 4.25 ng/dL, the T4 [5, 14] was 4.91 ± 0.17 µg/dL and the TSH [5, 14] was 0.77 ± 0.10 μu/ml. For the same compound, the “effect on T3, T4, FT3 and FT4 (in words, summary)” value ([5]; hyperthyroidism rats) was “may markedly decrease the concentration of T3, T4, FT3 and FT4”, the “effect on TSH (in words, summary)” value ([5]; hyperthyroidism rats) was “will not influence the TSH concentration in the blood” and the “effect on T3, T4, FT3 and FT4 (in words)” value [5, 15] was “will greatly reduce T3 (P<0.01), T4 (P<0.05), FT3 (P<0.01) and FT4 (P<0.01)”. The “effect on TSH (in words)” value [5, 15] was “no remarkable influence on TSH concentration”, the “pharmacological effect relative to PBT (in words)” value ([5]; hyperthyroidism rats, THP dosage much smaller than PBT dose) was “not less than that of the PBT” and the FT3 ([6]; THP 2.5 mg/kg i.p., 14 days) was 1.3 ± 0.1 ng/dL. It also gave an FT4 ([6]; THP 2.5 mg/kg i.p., 14 days) of 1.7 ± 0.5 ng/dL, a T3 ([6]; THP 2.5 mg/kg i.p., 14 days) of 56.8 ± 3.1 ng/dL and a T4 ([6]; THP 2.5 mg/kg i.p., 14 days) of 2.3 ± 0.5 µg/dL. It also gave a TSH ([6]; THP 2.5 mg/kg i.p., 14 days) of 1.9 ± 0.1 μu/ml, an FT3 ([6]; THP 5.0 mg/kg i.p., 14 days) of 1.2 ± 0.2 ng/dL and an FT4 ([6]; THP 5.0 mg/kg i.p., 14 days) of 2.1 ± 0.2 ng/dL. For the same compound, the T3 ([6]; THP 5.0 mg/kg i.p., 14 days) was 58.8 ± 3.7 ng/dL, the T4 ([6]; THP 5.0 mg/kg i.p., 14 days) was 2.5 ± 0.2 µg/dL and the TSH ([6]; THP 5.0 mg/kg i.p., 14 days) was 2.5 ± 0.4 μu/ml. It also gave an FT4 ([6]; THP 10.0 mg/kg i.p., 14 days) of 1.9 ± 1.5 ng/dL, a T3 ([6]; THP 10.0 mg/kg i.p., 14 days) of 49.1 ± 2.5 ng/dL and a T4 ([6]; THP 10.0 mg/kg i.p., 14 days) of 2.3 ± 0.3 µg/dL. For the same compound, the TSH ([6]; THP 10.0 mg/kg i.p., 14 days) was 1.9 ± 0.1 μu/ml and the “effect on T3, T4, FT3, FT4 and TSH (in words)” value ([6]; THP 2.5, 5.0 and 10 mg/kg i.p., 14 days) was “no influence on the concentrations of T3, T4, FT3, FT4 and TSH”.
